In PubChem BioAssay AID330 (DTP/NCI, 2004):
“And” between values parts separate entries of the source, which are not always exact repeats. Equal values may be shown once. Toxic doses and inconclusive results are not listed.

Tested on: P388 leukemia ip, CD2F1 mice, survival T/C
Assay: NCI In Vivo Anticancer Drug Screen. Data for tumor model P388 Leukemia (intraperitoneal) in CD2F1 (CDF1) mice
Details: endpoint: median survival time, higher = longer survival
Summary of the method: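 Mice carrying the transplanted tumor received test compound or vehicle. Survival was recorded in each group, and the value is the treated-group measurement divided by that of the vehicle-treated control group.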

[1] = dose: 60.0 mg/kg/injection, schedule: Q01DX005 (ip), vehicle: Klucel (hydroxypropylcellulose) (HPC)
[2] = dose: 120.0 mg/kg/injection, schedule: Q01DX005 (ip), vehicle: Klucel (hydroxypropylcellulose) (HPC)
[3] = dose: 12.5 mg/kg/injection, schedule: Q01DX009 (ip), vehicle: saline
[4] = dose: 25.0 mg/kg/injection, schedule: Q01DX009 (ip), vehicle: saline

With `COc1ccc(C(=O)N/N=C(\C)[C@]2(O)Cc3c(O)c4c(c(O)c3[C@@H](OC3CC(N)C(O)C(C)O3)C2)C(=O)c2c(OC)cccc2C4=O)cc1` (stereo partly specified) the T/C (dose: 0.12 mg/kg/injection, schedule: Q01DX009 (ip), vehicle: water) was 119 % of control, the T/C (dose: 0.5 mg/kg/injection, schedule: Q01DX009 (ip), vehicle: water) was 151 % of control and the T/C (dose: 1.0 mg/kg/injection, schedule: Q01DX009 (ip), vehicle: water) was 158 % of control and 164 % of control. For the same compound, the T/C (dose: 2.0 mg/kg/injection, schedule: Q01DX009 (ip), vehicle: water) was 174 % of control and 190 % of control, the T/C (dose: 4.0 mg/kg/injection, schedule: Q01DX009 (ip), vehicle: water) was 181 % of control and 211 % of control and the T/C (dose: 6.0 mg/kg/injection, schedule: Q04DX003 (ip), vehicle: water) was 112 % of control. For the same compound, the T/C (dose: 12.0 mg/kg/injection, schedule: Q04DX003 (ip), vehicle: water) was 121 % of control, the T/C (dose: 24.0 mg/kg/injection, schedule: Q04DX003 (ip), vehicle: water) was 166 % of control and the T/C (dose: 48.0 mg/kg/injection, schedule: Q04DX003 (ip), vehicle: water) was 118 % of control.

With `CCCCCc1cc(/C=C2/N=C(c3ccc[nH]3)C=C2OC)[nH]c1C` the T/C (dose: 1.5 mg/kg/injection, schedule: Q01DX009 (ip), vehicle: saline) was 114 % of control, the T/C (dose: 3.0 mg/kg/injection, schedule: Q01DX009 (ip), vehicle: saline) was 120 % of control and 123 % of control and the T/C (dose: 6.0 mg/kg/injection, schedule: Q01DX009 (ip), vehicle: saline) was 107 % of control.

`CCOC(=O)C1C(=O)NN(/C=C2\C=CC=CC2=O)C1c1ccc([N+](=O)[O-])cc1` (stereo unspecified) was tested, and the T/C (dose: 100.0 mg/kg/injection, schedule: Q04DX002 (ip), vehicle: saline) was 111 % of control, the T/C (dose: 200.0 mg/kg/injection, schedule: Q04DX002 (ip), vehicle: saline) was 93 % of control and the T/C (dose: 400.0 mg/kg/injection, schedule: Q04DX002 (ip), vehicle: saline) was 98 % of control.

With `O=C(c1ccccc1)N1C=CN(C(=O)c2ccccc2)C(c2ccccc2)C1c1ccccc1` (stereo unspecified) the T/C [1] was 88 % of control and the T/C [2] was 90 % of control.

With `C[CH2][Sn][Cl]` the T/C (dose: 6.25 mg/kg/injection, schedule: Q01DX009 (ip), vehicle: saline) was 98 % of control, the T/C [3] was 98 % of control and the T/C [4] was 91 % of control.

For `O=C1c2ccccc2C(=O)c2c(O)c(NCCCNCCO)cc(O)c21`, the T/C (dose: 2.5 mg/kg/injection, schedule: Q01DX009 (ip), vehicle: acid diluted with saline) was 103 % of control, the T/C (dose: 5.0 mg/kg/injection, schedule: Q01DX009 (ip), vehicle: acid diluted with saline) was 108 % of control and the T/C (dose: 10.0 mg/kg/injection, schedule: Q01DX009 (ip), vehicle: acid diluted with saline) was 103 % of control. The T/C (dose: 20.0 mg/kg/injection, schedule: Q01DX009 (ip), vehicle: acid diluted with saline) was 112 % of control, the T/C (dose: 40.0 mg/kg/injection, schedule: Q01DX009 (ip), vehicle: acid diluted with saline) was 111 % of control and the T/C (dose: 80.0 mg/kg/injection, schedule: Q01DX009 (ip), vehicle: acid diluted with saline) was 100 % of control.

For `CC(C)C1=CC2=CCC3C(C)(C(=O)O)CCCC3(C)C2CC1.[Ni]` (stereo unspecified), the T/C [3] was 95 % of control, the T/C [4] was 88 % of control and the T/C (dose: 50.0 mg/kg/injection, schedule: Q01DX009 (ip), vehicle: saline) was 88 % of control.

With `CC(C)C1CCC2(C)CCC3(C)CCC12O3` (stereo unspecified) the T/C (dose: 12.0 mg/kg/injection, schedule: Q01DX009 (ip), vehicle: Klucel (hydroxypropylcellulose) (HPC)) was 108 % of control, the T/C (dose: 24.0 mg/kg/injection, schedule: Q01DX009 (ip), vehicle: Klucel (hydroxypropylcellulose) (HPC)) was 98 % of control and the T/C (dose: 48.0 mg/kg/injection, schedule: Q01DX009 (ip), vehicle: Klucel (hydroxypropylcellulose) (HPC)) was 108 % of control. The T/C (dose: 96.0 mg/kg/injection, schedule: Q01DX009 (ip), vehicle: Klucel (hydroxypropylcellulose) (HPC)) was 108 % of control.

In the case of `COc1ccc(CCNc2cc3ncn(C)c(=O)c3cc2[N+](=O)[O-])cc1OC`, the T/C (dose: 100.0 mg/kg/injection, schedule: Q04DX003 (ip), vehicle: Klucel (hydroxypropylcellulose) (HPC)) is reported as 101 % of control, the T/C (dose: 200.0 mg/kg/injection, schedule: Q04DX003 (ip), vehicle: Klucel (hydroxypropylcellulose) (HPC)) is reported as 100 % of control and the T/C (dose: 400.0 mg/kg/injection, schedule: Q04DX003 (ip), vehicle: Klucel (hydroxypropylcellulose) (HPC)) is reported as 86 % of control.

In the case of `CCN(CC)CCNc1ccc(C)c2sc3ccc(OC)cc3c(=O)c12`, the T/C (dose: 25.0 mg/kg/injection, schedule: Q01DX009 (ip), vehicle: saline with Tween-80) is reported as 115 % of control and the T/C (dose: 50.0 mg/kg/injection, schedule: Q01DX009 (ip), vehicle: saline with Tween-80) is reported as 115 % of control and 90 % of control.

`O=C1CCNC(=O)N1CN1CCc2ccccc2C1` was tested, and the T/C [1] was 108 % of control, the T/C [2] was 99 % of control and the T/C (dose: 240.0 mg/kg/injection, schedule: Q01DX005 (ip), vehicle: Klucel (hydroxypropylcellulose) (HPC)) was 108 % of control.
